The record followed here is ChEMBL document CHEMBL1255477, “In vitro properties of BAL30072, a novel siderophore sulfactam with activity against multiresistant gram-negative bacilli” (Antimicrob Agents Chemother, 2010).

In brackets after ≈: the same amount, converted by molar mass. Activity calls are given as the source filed them. The calls are words filed in the database; no cut-off is given here.

Data set [1] has as its system Klebsiella aerogenes. In words: Antimicrobial activity against Enterobacter aerogenes by broth dilution method. In kind it is functional. On the technique in general: Dilution methods test growth across graded concentrations, often in twofold steps.
Data set [2] has as its system Citrobacter freundii. As to the kind of experiment: Antimicrobial activity against Citrobacter freundii by broth dilution method. In kind it is functional.
For data set [3], the system named is Escherichia coli. As to the kind of experiment: Antimicrobial activity against Escherichia coli by broth dilution method. In kind it is functional.
The subject of data set [4] is Klebsiella oxytoca. In words: Antimicrobial activity against Klebsiella oxytoca by broth dilution method. In kind it is functional.
For data set [5], the system named is Acinetobacter sp. In words: Antimicrobial activity against Acinetobacter sp. by broth dilution method. In kind it is functional.
Data set [6] deals with Escherichia coli. As to the kind of experiment: Antimicrobial activity against Escherichia coli HB101 harboring beta-lactamase TEM-5 by broth dilution method. In kind it is functional.
Data set [7] has as its system Escherichia coli. In words: Antimicrobial activity against Escherichia coli K802N harboring beta-lactamase TEM-3 by broth dilution method. In kind it is functional.
Data set [8] has as its system Escherichia coli. As to the kind of experiment: Antimicrobial activity against Escherichia coli CF102 harboring beta-lactamase TEM-3 by broth dilution method. In kind it is functional.
Data set [9] concerns Klebsiella pneumoniae. In words: Antimicrobial activity against Klebsiella pneumoniae 1357E harboring beta-lactamase TEM-10 by broth dilution method. In kind it is functional.
Data set [10] concerns Escherichia coli. As to the kind of experiment: Antimicrobial activity against Escherichia coli A harboring beta-lactamase CTX-M 15 by broth dilution method. In kind it is functional.
Data set [11] relates to Klebsiella pneumoniae. In words: Antimicrobial activity against Klebsiella pneumoniae 26768WU harboring beta-lactamase SHV-5 by broth dilution method. In kind it is functional.
Data set [12] relates to Klebsiella oxytoca. As to the kind of experiment: Antimicrobial activity against Klebsiella oxytoca 1028E harboring beta-lactamase K1 by broth dilution method. In kind it is functional.
In data set [13] the test system is Serratia marcescens. As to the kind of experiment: Antimicrobial activity against Serratia marcescens S6 harboring beta-lactamase SME-1.AmpC by broth dilution method. In kind it is functional.
Data set [14] relates to Escherichia coli. As to the kind of experiment: Antimicrobial activity against Escherichia coli nmcA harboring beta-lactamase NMCA by broth dilution method. In kind it is functional.
Data set [15] has as its system Klebsiella pneumoniae. As to the kind of experiment: Antimicrobial activity against Klebsiella pneumoniae CRE harboring beta-lactamase KPC-2 by broth dilution method. In kind it is functional.
The subject of data set [16] is Klebsiella pneumoniae. In words: Antimicrobial activity against Klebsiella pneumoniae YC harboring beta-lactamase KPC-2,TEM-1and SHV-2 by broth dilution method. In kind it is functional.
For data set [17], the system named is Acinetobacter baumannii. As to the kind of experiment: Antimicrobial activity against Acinetobacter baumannii HPA74510 harboring beta-lactamase IMP-4 by broth dilution method. In kind it is functional.
The subject of data set [18] is Pseudomonas aeruginosa. In words: Antimicrobial activity against Pseudomonas aeruginosa HPA10586 harboring beta-lactamase VIM-1 by broth dilution method. In kind it is functional.
The subject of data set [19] is Providencia rettgeri. As to the kind of experiment: Antimicrobial activity against Providencia rettgeri J96 harboring beta-lactamase IMP-1 by broth dilution method. In kind it is functional.
For data set [20], the system named is Stenotrophomonas maltophilia. As to the kind of experiment: Antimicrobial activity against Stenotrophomonas maltophilia B715 harboring beta-lactamase L1and L2 by broth dilution method. In kind it is functional.
Data set [21] has as its system Escherichia coli. As to the kind of experiment: Antimicrobial activity against Escherichia coli Libyien harboring beta-lactamase CMY-2 by broth dilution method. In kind it is functional.
Data set [22] in a line: Inhibition of Escherichia coli Penicillin-binding protein 1A.
Data set [23] is described as follows: Inhibition of Escherichia coli Penicillin-binding protein 1B.
A short description of data set [24]: Inhibition of Escherichia coli Penicillin-binding protein 2.
Data set [25] is described as follows: Inhibition of Escherichia coli Penicillin-binding protein 3.
For data set [26], the system named is Acinetobacter baumannii. In words: Antimicrobial activity against Acinetobacter baumannii HPA 4737 harboring beta-lactamase OXA-26 by broth dilution method. In kind it is functional.
For data set [27], the system named is Acinetobacter baumannii. As to the kind of experiment: Antimicrobial activity against Acinetobacter baumannii HPA I-16 harboring beta-lactamase OXA-27 by broth dilution method. In kind it is functional.
The test system of data set [28] is Escherichia coli. In words: Antimicrobial activity against Escherichia coli W3110 assessed as appearance of spheroplast at 64 ug/mL after 3 hrs by phase-contrast microscopy. In kind it is functional, organism-based.
Data set [29] concerns Escherichia coli. In words: Antimicrobial activity against Escherichia coli W3110 assessed as appearance of long filaments at 64 ug/mL after 3 hrs by phase-contrast microscopy. In kind it is functional, organism-based.
The nature of data set [30]: Inhibition of beta-lactamase KPC-2.
The nature of data set [31]: Inhibition of Beta-lactamase IMP1.
Data set [32] has as its target AmpC (Escherichia coli, UniProt Q83TT7). As to the kind of experiment: Inhibition of Escherichia coli ATCC 25922 AmpC.
The test system of data set [33] is Acinetobacter baumannii. In words: Antimicrobial activity against Acinetobacter baumannii HPA 327009 harboring beta-lactamase OXA-25 by broth dilution method. In kind it is functional.
The test system of data set [34] is Pseudomonas aeruginosa. In words: microbe, parasite or virus in culture. Conditions: 18S/H.
Substrate in data set [35]: CC1(C)[C@H](NC(=O)/C(=N\OCc2cc(=O)c(O)cn2O)c2csc(N)n2)C(=O)N1OS(=O)(=O)O
The conditions noted are these: Escherichia coli; ATCC 25922.

Substrate in data set [36]: C[C@H]1[C@H](NC(=O)/C(=N\OC(C)(C)C(=O)O)c2csc(N)n2)C(=O)N1S(=O)(=O)O
The conditions noted are these: Escherichia coli; ATCC 25922.

Substrate in data set [37]: CC1(C)[C@H](NC(=O)/C(=N\OCc2cc(=O)c(O)cn2O)c2csc(N)n2)C(=O)N1OS(=O)(=O)O
The conditions noted are these: Escherichia coli; ATCC 25922. The source holds these as a separate data set.

Substrate in data set [38]: C[C@H]1[C@H](NC(=O)/C(=N\OC(C)(C)C(=O)O)c2csc(N)n2)C(=O)N1S(=O)(=O)O
Conditions: Escherichia coli; ATCC 25922. This is another data set of the same source.

In the case of `C[C@H]1[C@H](NC(=O)/C(=N\OC(C)(C)C(=O)O)c2csc(N)n2)C(=O)N1S(=O)(=O)O` [AZTREONAM], the MIC50 (commonly an inhibitory concentration at the 50% level, which refers to growth in some studies and to a panel of isolates in others) in data set [1] is 4 mg/L (≈ 9.19 µM); in data set [2], > 32 mg/L; in data set [3], > 32 mg/L; in [4] it was 16 mg/L (≈ 36.7 µM); in [5], > 32 mg/L. The MIC90 in data set [1], in data set [2], in data set [3], in data set [4] and in [5] was > 32 mg/L each time. Moreover, the MIC in [2] was > 32 mg/L; in data set [6], 32 mg/L (≈ 73.5 µM); in data set [7], > 32 mg/L; in data set [8], 32 mg/L (≈ 73.5 µM); in [9] it was > 32 mg/L; in data set [10], > 32 mg/L. The MIC in data set [11] is > 32 mg/L; in [12], > 32 mg/L; in data set [13], 16 mg/L (≈ 36.7 µM); in data set [14], > 32 mg/L; in [15] it was > 32 mg/L; in data set [16], > 32 mg/L. For the same molecule, the MIC in data set [17] stood at 32 mg/L (≈ 73.5 µM); in [18] it was 16 mg/L (≈ 36.7 µM); in [19], 2 mg/L (≈ 4.59 µM); in data set [20], 32 mg/L (≈ 73.5 µM); in [21], 16 mg/L (≈ 36.7 µM); in data set [26], 32 mg/L (≈ 73.5 µM). The MIC is 32 mg/L (≈ 73.5 µM) in data set [27], 16 mg/L (≈ 36.7 µM) in data set [33] and > 32 mg/L in [34]. Besides, the IC50 (usually the concentration needed to halve the response being measured) in data set [22] was > 50 µM; in [23], > 50 µM; in data set [24] it was > 50 µM; in data set [25], 0.023 µM; in data set [30], > 2500 µM; in data set [31], 1100 µM. Further, in data set [32], the IC50 was 0.06 µM. Further, the outcome in [28] and in [29] was Active.
In the case of MFKTTLCALLITASCSTFAA [AmpC (Escherichia coli), Q83TT7], the Km – broadly, the concentration of substrate that gives half-maximal velocity – in data set [35] worked out at 100 µM; in data set [36], 21 µM. The kcat (in general, the maximal rate divided by the concentration of active sites) in data set [35] came to 0.004 s⁻¹; in data set [36], 6e-05 s⁻¹. In addition, the results for the kcat/Km in data set [37] and in data set [38] were 38 M⁻¹ s⁻¹ and 2.9 M⁻¹ s⁻¹, respectively.
